Reference: the supplement of paper PMC10307832

Experiments:
Experiment in all cases: relative viability (nuclei count vs DMSO), 5 days (fraction); higher = more cells survive
[1] = compound: C(C(=O)C(=O)O)Br [Bromopyruvate]
Outline: (§1)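 Vehicle-anchored 1536-well plates of lung cancer cell lines, held overnight at 37 °C, were pinned with five library-drug doses (not always all listed) spaced by √10. No medium change followed over the next 5 days, after which the cells were fixed, permeabilised and Hoechst-stained together and imaged at 4×. Nuclei were counted with MetaXpress, and viability is treated-well nuclei over vehicle-well nuclei, taken as a median across plates. Plates passed with control CV below 25% and at least one doubling.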

[2] = compound: CC(O)(CS(=O)(=O)c1ccc(F)cc1)C(=O)Nc1ccc(C#N)c(C(F)(F)F)c1 [Bicalutamide]
Outline: as §1

[3] = compound: C(C(=O)C(=O)O)Br [Bromopyruvate] + CC1(C)CCC(c2ccc(Cl)cc2)=C(CN2CCN(c3ccc(C(=O)NS(=O)(=O)c4ccc(N[C@H](CCN5CCOCC5)CSc5ccccc5)c(S(=O)(=O)C(F)(F)F)c4)cc3)CC2)C1 [Navitoclax] (partner 0.5 µM)
Outline: (§2)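 Relative viability equals treated-well nuclei counts divided by vehicle-well nuclei counts. Counts came from 4× images of lung cancer cell lines grown in 1536-well plates for 5 days after pin-tool dosing on the day after seeding. Dosing used one drug alone or a fixed anchor-drug dose plus five library-drug doses (not always all listed) in √10 steps, and values are medians of duplicate plates.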

[4] = compound: CC(O)(CS(=O)(=O)c1ccc(F)cc1)C(=O)Nc1ccc(C#N)c(C(F)(F)F)c1 [Bicalutamide] + N=C(N)NC(=N)NCCc1ccccc1 [Phenformin] (partner 250 µM)
Outline: as §2

Cell Line	relative viability ([1]; 1 µM)	relative viability ([1]; 3.162 µM)	relative viability ([1]; 10 µM)	relative viability ([1]; 31.62 µM)	relative viability ([1]; 100 µM)	relative viability ([2]; 0.08 µM)	relative viability ([2]; 0.253 µM)	relative viability ([2]; 0.8 µM)	relative viability ([2]; 2.53 µM)	relative viability ([3]; first compound 1 µM)	relative viability ([3]; first compound 3.162 µM)	relative viability ([3]; first compound 10 µM)	relative viability ([3]; first compound 31.62 µM)	relative viability ([3]; first compound 100 µM)	relative viability ([4]; first compound 0.08 µM)	relative viability ([4]; first compound 0.253 µM)	relative viability ([4]; first compound 0.8 µM)	relative viability ([4]; first compound 2.53 µM)
NCI-H2085	1	1.04	1.03	1.07	1.02	1.01	0.955	1.01	0.94	1.08	1.19	1.25	1.07	1.05	0.742	0.686	0.781	0.608
NCI-H2347	1.06	0.956	1.01	0.837	1.03	1.1	0.913	1.19	1.03	0.714	0.742	1.13	0.553	0.778	0.368	0.462	0.421	0.268
NCI-H1944	1.02	0.995	0.967	0.904	1	0.993	0.873	1.06	0.978	1.08	1.15	1.02	1.01	1.05	0.216	0.181	0.238	0.217
NCI-H1793	1.03	1.09	1.12	0.959	1.08	0.823	0.736	1.02	0.809	0.673	0.376	0.377	0.516	0.511	0.317	0.318	0.545	0.392
NCI-H596	1.09	0.982	1.03	0.862	1.12	0.956	0.953	1.07	1.12	0.871	0.964	1.1	0.877	1.07	0.586	0.643	0.794	0.897
A549	0.942	0.969	1.18	0.95	1.06	0.974	0.875	1.16	0.973	1.23	1.22	1.36	1.22	1.33	0.247	0.11	0.181	0.254
NCI-H520	0.926	1.17	0.989	1.07	0.855	0.948	0.952	1.17	0.906	1.05	1.08	1.21	1.18	1.03	0.707	0.421	0.61	0.366
EKVX	0.988	0.973	1.06	1.01	0.969	1.02	0.984	1.09	0.914	0.887	0.995	1.06	0.95	1.07	0.246	0.223	0.233	0.24
EPLC-272H	1.01	1.03	1.11	0.952	1.04	0.996	0.798	1.06	0.908	1.15	1.22	1.01	1.2	1.34	0.34	0.274	0.311	0.315
NCI-H1395	1.07	0.896	0.955	0.787	1.1	1.05	0.9	1.03	0.82	1.24	1.24	1.28	1.17	1.21	0.467	0.417	0.478	0.446
NCI-H2228	1.07	1.04	1.27	0.851	1.02	0.798	0.967	1.56	1.09	0.936	0.698	0.864	0.469	0.63	0.356	0.371	0.58	0.291
LXF-289	1.03	1.01	1.04	1.03	1.02	0.998	0.958	0.984	0.979	0.983	0.987	0.898	0.99	1.02	0.596	0.481	0.55	0.519
NCI-H2023	0.893	0.962	1.15	0.958	0.959	1.01	0.903	1.17	0.907	0.97	1.06	1.06	1.09	1.06	0.447	0.315	0.456	0.454
NCI-H3122	0.992	1.01	0.999	0.972	1.01	1.03	0.977	1.01	1.03	1.03	0.974	1.08	1.01	1.03	0.46	0.416	0.378	0.369
NCI-H1755	0.977	0.964	1.06	1.01	1.02	0.988	1.01	1.05	0.876	1.06	1.02	0.977	1.03	1.03	0.651	0.595	0.596	0.551
HCC-78	1.08	0.971	1.02	0.94	0.993	0.941	0.991	1.22	0.985	0.386	0.759	0.977	0.893	0.886	0.776	0.557	0.796	0.668
LOU-NH91	1.09	1.01	0.973	0.984	1.01	1.09	0.765	1.05	1.04	0.835	0.611	0.759	0.84	0.783	0.745	0.493	0.814	0.821
